Reference: article PMC2172902 (The Journal of Cell Biology, 2003)
Peptide text beside a SMILES is read from it. * marks the point of attachment. Cbz = O=C(OCc1ccccc1)*

Test system: DLD-1 cells
Assay: chromosome alignment in cultures treated with proteosome inhibitor
Assay type: cell-based, human
Conditions: control cultures, 20 μM

## CC(C)C[C@@H](C=O)NC(=O)[C@H](CC(C)C)NC(=O)[C@H](CC(C)C)NC(=O)OCc1ccccc1 [MG132] (Cbz-Leu-Leu-Leu-aldehyde)
  proportion of metaphases: ~66%
  proportion of prometaphases: ~25%
